For this assay, the system named is CD2F1 mice, L1210 leukemia ip, survival T/C. As to the kind of experiment: NCI In Vivo Anticancer Drug Screen. Data for tumor model L1210 Leukemia (intraperitoneal) in CD2F1 (CDF1) mice. To be noted: higher = longer survival. Summed up: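 Activity against a transplanted murine tumor was judged by comparing the compound group with a vehicle group. The outcome in the treated animals was divided by that in the controls.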

Where [1] appears, read: endpoint: mean survival time, dose: 100.0 mg/kg/injection, schedule: Q04DX003 (ip), vehicle: saline with Tween-80.
The mark [2] stands for this setting: endpoint: mean survival time, dose: 200.0 mg/kg/injection, schedule: Q04DX003 (ip), vehicle: saline with Tween-80.
The mark [3] stands for this setting: endpoint: mean survival time, dose: 50.0 mg/kg/injection, schedule: Q01DX009 (ip), vehicle: saline.
The mark [4] stands for this setting: endpoint: mean survival time, dose: 100.0 mg/kg/injection, schedule: Q01DX009 (ip), vehicle: saline.
The mark [5] stands for this setting: endpoint: mean survival time, dose: 200.0 mg/kg/injection, schedule: Q01DX009 (ip), vehicle: saline.
[6] abbreviates: endpoint: mean survival time, dose: 100.0 mg/kg/injection, schedule: Q04DX003 (ip), vehicle: saline.
Setting [7] is: endpoint: mean survival time, dose: 200.0 mg/kg/injection, schedule: Q04DX003 (ip), vehicle: saline.
Where [8] appears, read: endpoint: mean survival time, dose: 400.0 mg/kg/injection, schedule: Q04DX003 (ip), vehicle: saline.
Where [9] appears, read: endpoint: mean survival time, dose: 400.0 mg/kg/injection, schedule: Q04DX003 (ip), vehicle: saline with Tween-80.
Setting [10] is: endpoint: mean survival time, dose: 100.0 mg/kg/injection, schedule: Q04DX002 (ip), vehicle: saline with Tween-80.

Each structure is given as a SMILES string. Several values for one entry are separate records, joined by “and”; a condition that tells them apart may be missing. Equal entries are not always repeated. Inconclusive results and toxic doses are left out.

In the case of `[NH-]c1ccccc1C(=O)O.[NH-]c1ccccc1C(=O)O.[Ni+2]`, the T/C by setting is: under setting [1], 93 % of control; under setting [2], 107 % of control.

Regarding `O=C1CC(c2ccc(Br)cc2)N(c2ccc([As](=O)(O)O)cc2)C1=O` (stereo not given), the T/C is 95 % of control (endpoint: mean survival time, dose: 6.25 mg/kg/injection, schedule: Q01DX009 (ip), vehicle: Klucel (hydroxypropylcellulose) (HPC)); 89 % of control (endpoint: mean survival time, dose: 12.5 mg/kg/injection, schedule: Q01DX009 (ip), vehicle: Klucel (hydroxypropylcellulose) (HPC)); 100 % of control (endpoint: median survival time, dose: 6.25 mg/kg/injection, schedule: Q04DX003 (ip), vehicle: saline with Tween-80); 106 % of control (endpoint: median survival time, dose: 12.5 mg/kg/injection, schedule: Q04DX003 (ip), vehicle: saline with Tween-80); 100 % of control (endpoint: median survival time, dose: 25.0 mg/kg/injection, schedule: Q04DX003 (ip), vehicle: saline with Tween-80).

Consider `CN(C)N1C(=O)c2ccccc2C1=O`, for which the T/C by setting is: (endpoint: mean survival time, dose: 100.0 mg/kg/injection, schedule: Q04DX003 (ip), vehicle: other) 96 % of control; (endpoint: mean survival time, dose: 200.0 mg/kg/injection, schedule: Q04DX003 (ip), vehicle: other) 104 % of control; (endpoint: mean survival time, dose: 400.0 mg/kg/injection, schedule: Q04DX003 (ip), vehicle: other) 98 % of control.

In the case of `CNCc1ccc([N+](=O)[O-])cc1`, the T/C under setting [3] is 104 % of control, the T/C under setting [4] was 100 % of control and the T/C under setting [5] is 93 % of control.

On to `CCCC(=O)O`, for which the T/C (endpoint: mean survival time, dose: 1.25 mg/kg/injection, schedule: Q01DX009 (ip), vehicle: saline) was 96 % of control; the T/C (endpoint: mean survival time, dose: 12.5 mg/kg/injection, schedule: Q01DX009 (ip), vehicle: saline) is 98 % of control; the T/C (endpoint: mean survival time, dose: 25.0 mg/kg/injection, schedule: Q01DX009 (ip), vehicle: saline) is 96 % of control and 100 % of control; the T/C under setting [3] is 96 % of control and 97 % of control; the T/C under setting [4] is 97 % of control and 100 % of control; the T/C under setting [6] was 102 % of control. In addition, the T/C under setting [5] was 95 % of control and 107 % of control; the T/C under setting [7] is 102 % of control; the T/C under setting [8] was 105 % of control.

For `Nc1cccc(NC=O)c1`, the T/C (endpoint: mean survival time, dose: 100.0 mg/kg/injection, schedule: Q04DX003 (ip), vehicle: Klucel (hydroxypropylcellulose) (HPC)) is 102 % of control.

For the compound `CC(C)(C)OC(=O)Cc1ncnc2c1ncn2C1OC(CO)C(O)C1O` (stereo not given), the T/C (endpoint: mean survival time, dose: 12.5 mg/kg/injection, schedule: Q01DX005 (ip), vehicle: distilled water + Tween-80) is 103 % of control; the T/C (endpoint: mean survival time, dose: 25.0 mg/kg/injection, schedule: Q01DX005 (ip), vehicle: distilled water + Tween-80) was 102 % of control; the T/C (endpoint: mean survival time, dose: 50.0 mg/kg/injection, schedule: Q01DX005 (ip), vehicle: distilled water + Tween-80) was 96 % of control; the T/C (endpoint: mean survival time, dose: 100.0 mg/kg/injection, schedule: Q01DX005 (ip), vehicle: distilled water + Tween-80) is 97 % of control; the T/C (endpoint: mean survival time, dose: 200.0 mg/kg/injection, schedule: Q01DX005 (ip), vehicle: distilled water + Tween-80) was 102 % of control.

For `CCC(C)(S(=O)(=O)CC)S(=O)(=O)CC`, the T/C under setting [1] was 102 % of control, the T/C under setting [2] was 98 % of control and the T/C under setting [9] was 98 % of control.

Regarding `CCOC(=S)S`, the T/C is, setting by setting: (endpoint: mean survival time, dose: 100.0 mg/kg/injection, schedule: Q01DX009 (ip), vehicle: saline sonified) 103 % of control; under setting [6], 96 % of control; (endpoint: mean survival time, dose: 200.0 mg/kg/injection, schedule: Q01DX009 (ip), vehicle: saline sonified) 97 % of control; under setting [8], 104 % of control.

As for `CCOC(=O)NOP(=O)(N1CC1)N1CC1`, the T/C (endpoint: mean survival time, dose: 12.5 mg/kg/injection, schedule: Q04DX002 (ip), vehicle: saline with Tween-80) is 116 % of control; the T/C (endpoint: mean survival time, dose: 50.0 mg/kg/injection, schedule: Q04DX002 (ip), vehicle: saline with Tween-80) is 166 % of control; the T/C under setting [10] was 186 % of control.

As for `O=C1CCSc2ccccc21`, the T/C was 95 % of control (endpoint: mean survival time, dose: 75.0 mg/kg/injection, schedule: Q01DX009 (ip), vehicle: saline with Tween-80); 104 % of control under setting [1]; 100 % of control under setting [6]; 102 % of control (endpoint: mean survival time, dose: 150.0 mg/kg/injection, schedule: Q01DX009 (ip), vehicle: saline with Tween-80); 101 % of control under setting [2]; 100 % of control under setting [7]. Besides, the T/C by setting is: (endpoint: mean survival time, dose: 300.0 mg/kg/injection, schedule: Q01DX009 (ip), vehicle: saline with Tween-80) 96 % of control; under setting [9], 102 % of control; under setting [8], 100 % of control.

In the case of `CN(CCC#N)c1ccc(C(=C2C=CC(=Nc3ccccc3)c3ccccc32)c2ccc(N(C)CCC#N)cc2)cc1`, the T/C reads like this: under setting [10], 97 % of control; (endpoint: mean survival time, dose: 200.0 mg/kg/injection, schedule: Q04DX002 (ip), vehicle: saline with Tween-80) 101 % of control.

On to `CCOC/C=C/C1CCCCC1`, for which the T/C (endpoint: mean survival time, dose: 50.0 mg/kg/injection, schedule: Q01DX009 (ip), vehicle: saline with Tween-80) is 117 % of control; the T/C (endpoint: mean survival time, dose: 100.0 mg/kg/injection, schedule: Q01DX009 (ip), vehicle: saline with Tween-80) is 97 % of control; the T/C (endpoint: mean survival time, dose: 200.0 mg/kg/injection, schedule: Q01DX009 (ip), vehicle: saline with Tween-80) is 97 % of control.

Turning to `CCOC(=O)c1ccc(NC/C(CN)=N/O)cc1`, the T/C was 95 % of control (endpoint: mean survival time, dose: 75.0 mg/kg/injection, schedule: Q01DX001 (ip), vehicle: other) and 95 % of control (endpoint: mean survival time, dose: 150.0 mg/kg/injection, schedule: Q01DX001 (ip), vehicle: other).

In the case of `ClC(Cl)c1nc2ccccc2[nH]1`, the T/C is, setting by setting: (endpoint: mean survival time, dose: 6.25 mg/kg/injection, schedule: Q01DX001 (ip), vehicle: Klucel (hydroxypropylcellulose) (HPC)) 89 % of control; (endpoint: mean survival time, dose: 12.5 mg/kg/injection, schedule: Q01DX001 (ip), vehicle: Klucel (hydroxypropylcellulose) (HPC)) 96 % of control; (endpoint: mean survival time, dose: 25.0 mg/kg/injection, schedule: Q01DX001 (ip), vehicle: Klucel (hydroxypropylcellulose) (HPC)) 89 % of control.

For the compound `CC1(C)CCC2(C)CCC3(C)C(=CCC4C5(C)CCC(O)C(C)(C)C5CCC43C)C2C1` (stereo not given), the T/C was 98 % of control under setting [1], 90 % of control under setting [2] and 91 % of control under setting [9].
